Measurements taken from paper PMC8126888 (RSC Medicinal Chemistry, 2020).
Read-outs that look alike come from different tables or passages of the source.

Experiments:
[1] = test system: primary peritoneal mouse macrophages (PMM); settings: PMM IC50 / L. infantum IC50
in vitro [2] = settings: human
in vitro [3] = settings: human, microsomes, pH 7.4, HLM CLint, human liver microsomes
in vitro [4] = settings: Swiss, mouse
[5] = test system: Trypanosoma cruzi, Tulahuen CL2, beta-galactosidase strain; experiment: microbe, parasite or virus in culture; settings: MRC5, read-out: T. cruzi Tulahuen C4 (LacZ) IC50
[6] = test system: Leishmania infantum MHOM/MA(BE)/67/ITMAP263 intracellular amastigotes; experiment: microbe, parasite or virus in culture; settings: Macrophage, in Mus musculus
physchem = settings: HPLC, Ascentis Express RP Amide column, pH 7.4, eLogD
in vitro [7] = settings: mouse, microsomes, pH 7.4, MLM CLint, mouse liver microsomes
in vitro [8] = settings: PAMPA
[9] = test system: primary peritoneal mouse macrophages (PMM); experiment: cells; settings: Macrophage, read-out: PMM IC50
in vitro [10] = settings: PAMPA; remark: listed apart in the source
in vitro [11] = settings: human, HFF-1 cells
in vitro [12] = settings: human, HepG2 cells
[13] = read-out: L. Inf. pIC50, from L. infantum intracellular amastigote IC50 (converted)
[14] = read-out: L. infantum MHOM/MA(BE)/67/ITMAP263 intracellular amastigotes IC50
[15] = read-out: L. infantum MHOM/MA(BE)/67/ITMAP263 intracellular amastigotes IC50, intracellular amastigotes

SMILES | SI (vs PMM) [1] | CC50 at 3 days (in vitro [2]) [µM] | microsomal CLint at 0.5 μM (in vitro [3]) [µL/min/mg] | IC50 (in vitro [4]) [µM] | IC50 [5] [µM] | IC50 [6, 13] [µM] | IC50 [6, 14] [µM] | chromatographic logD (physchem) | microsomal CLint at 0.5 μM (in vitro [7]) [µL/min/mg] | Papp (in vitro [8]) [×10⁻⁶ cm/s] | IC50 [9] [µM] | Papp (in vitro [10]) [×10⁻⁶ cm/s] | IC50 [6, 15] [µM] | chromatographic logD (physchem; experimental) | CC50 (in vitro [11]) [µM] | CC50 (in vitro [12]) [µM]
CCC(Cc1ccccc1)Sc1nc(C)cc(C)c1C#N (centres unmarked) [DNDI0003297457] | 15 | > 64 | 2010 | 40.3 | 6.9 | 2.63 | 2.64 | 5.4 | 1900 | 0.19 | – | – | – | – | – | –
CCC(Cc1ccccc1)[S+]([O-])c1nc(C)cc(C)c1C#N (centres unmarked) [DNDI0003297458] | 1 | > 64 | 1230 | > 64 | > 64 | 47.9 | 47.6 | 3.2 | 1560 | 13.4 | – | – | – | – | – | –
CC[C@H](Cc1ccccc1)[S+]([O-])c1ccccc1OC (some centres unmarked) [DNDI0003362001] | 1 | > 64 | 390 | > 64 | 31.5 | 52.5 | 52.5 | 3.7 | 3620 | 9.42 | – | – | – | – | – | –
CC[C@H](Cc1ccccc1)S(=O)(=O)c1ccccc1OC [DNDI0003362003] | 2 | > 64 | 458 | > 64 | 31.7 | 34.7 | 34.6 | 3.5 | 1060 | 19.8 | – | – | – | – | – | –
O=S(=O)(NCc1ccccc1)c1ccccc1 [DNDI0003363562] | 1 | > 64 | 50 | > 64 | > 64 | > 64 | > 64 | 2.9 | 161 | 21.6 | – | – | – | – | – | –
CCN(Cc1ccccc1)S(=O)(=O)c1ccccc1 [DNDI0003363563] | 1 | > 64 | 418 | > 64 | 32.1 | > 64 | > 64 | 3.8 | 1180 | 7.54 | – | – | – | – | – | –
CCN(Cc1ccccc1)S(=O)(=O)c1ccccc1OC [DNDI0003363820] | 6 | 36.3 | 406 | > 64 | 30.1 | 11 | 11 | 3.6 | 1370 | 18.5 | – | – | – | – | – | –
COCCN(Cc1ccccc1)S(=O)(=O)c1ccccc1 [DNDI0003363821] | 2 | > 64 | 239 | > 64 | 39.3 | 40.7 | 40.5 | 3.5 | 2990 | 25.3 | – | – | – | – | – | –
CCN(Cc1ccccc1)S(=O)(=O)c1cc(Cl)ccc1OC [DNDI0003364251] | 12 | 53.2 | 304 | > 64 | 9.1 | 5.5 | 5.52 | 4.3 | 1260 | 3.74 | – | – | – | – | – | –
CCN(Cc1ccccc1)S(=O)(=O)c1ccccc1OC(F)(F)F [DNDI0003364252] | 8 | > 64 | 1180 | > 64 | 22.4 | 8.51 | 8.47 | 4.5 | 2340 | 1.18 | – | – | – | – | – | –
CCN(Cc1ccccc1)S(=O)(=O)c1ccc(NC(C)=O)cc1 [DNDI0003364473] | 1 | > 64 | 205 | > 64 | 33.1 | > 64 | > 64 | 3.5 | 398 | 13.6 | – | – | – | – | – | –
COc1ccc(Cl)cc1S(=O)(=O)N(Cc1ccccc1)OC [DNDI0003364476] | 3 | > 64 | 265 | > 64 | 7.86 | 24.5 | 24.7 | 4.3 | 1890 | 5.91 | – | – | – | – | – | –
CCN(Cc1ccccc1)S(=O)(=O)c1cc(F)ccc1N1CCCC1 [DNDI0003364614] | 4 | > 64 | 1470 | 50.8 | 7.33 | 12.9 | 12.9 | 4.9 | 3000 | 0.34 | – | – | – | – | – | –
O=S(=O)(NCc1ccccc1)c1cc(F)ccc1F [DNDI0003365406] | 1 | > 64 | 75 | > 64 | > 64 | 49 | 49.4 | 3.2 | 260 | 30.4 | – | – | – | – | – | –
COc1ccc(OC)c(S(=O)(=O)NCc2ccccc2)c1 [DNDI0003365408] | 1 | > 64 | 126 | > 64 | > 64 | > 64 | > 64 | 2.8 | 1250 | 16.8 | – | – | – | – | – | –
COc1ccc(OC)c(S(=O)(=O)N(Cc2ccc(F)cc2)Cc2ncccn2)c1 [DNDI0003370419] | – | > 64 | 115 | – | 38.8 | 13.8 | – | – | 844 | – | > 64 | 25.1 | 13.8 | 3.4 | 19.1 | > 64
COc1ccc(OC)c(S(=O)(=O)N(Cc2ccc(F)cc2)Cc2oc(C)nc2C)c1 [DNDI0003370420] | – | > 64 | 376 | – | 24.9 | 2.34 | – | – | 2280 | – | > 64 | 46.4 | 2.34 | 3.8 | 1.24 | > 64
COc1ccc(C#N)cc1S(=O)(=O)N(Cc1ccc(F)cc1)Cc1oc(C)nc1C [DNDI0003370421] | – | 49.1 | 392 | – | 26.1 | 7.94 | – | – | 721 | – | > 64 | 14.8 | 7.89 | 3.7 | 1.91 | > 64
COc1ccc(OC)c(S(=O)(=O)N2CCC(c3ccccc3)CC2)c1 [DNDI0003370422] | – | > 64 | 1610 | – | 16.9 | > 64 | – | – | 664 | – | > 64 | 6.45 | > 64 | 4.2 | 4.56 | 63.9
CNc1ncccc1S(=O)(=O)N(Cc1ccc(F)cc1)Cc1ccc(F)cc1 [DNDI0003371162] | – | > 64 | 401 | – | 14.5 | 3.55 | – | – | 984 | – | > 64 | 1.61 | 3.54 | 4.5 | > 64 | 16.9
Nc1ncccc1S(=O)(=O)N(Cc1ccc(F)cc1)Cc1ccc(F)cc1 [DNDI0003371163] | – | > 64 | 164 | – | 42 | > 64 | – | – | 447 | – | > 64 | 2.18 | > 64 | 4.2 | 52.2 | > 64
COc1ccc(S(C)(=O)=O)cc1S(=O)(=O)N(Cc1ccc(F)cc1)Cc1ccc(F)cc1 [DNDI0003371164] | – | > 64 | 296 | – | 22 | 1.29 | – | – | – | – | > 64 | 2.57 | 1.28 | – | 24.3 | 41.7
COc1ccc(OC)c(S(=O)(=O)N(Cc2ccc(F)cc2)c2ccc(F)cc2)c1 [DNDI0003371170] | – | > 64 | 417 | – | 15.1 | 11.2 | – | – | 703 | – | > 64 | 1.83 | 11.3 | – | 30.7 | 23.3
COc1ccc(C#N)cc1S(=O)(=O)N(Cc1ccc(F)cc1)Cc1ccc(C#N)cc1 [DNDI0003371171] | – | > 64 | – | – | 30.4 | 33.1 | – | – | – | – | > 64 | – | 33.2 | – | > 64 | > 64
